The results in this text go back to PubChem BioAssay AID248 (DTP/NCI, 2004).

In the experiment the test system is L1210 leukemia ip in BDF1 mice, survival T/C. As to the kind of experiment: NCI In Vivo Anticancer Drug Screen. Data for tumor model L1210 Leukemia (intraperitoneal) in B6D2F1 (BDF1) mice. Conditions: endpoint: mean survival time, higher = longer survival. The method in brief: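 Survival endpoint. Drug-treated group vs vehicle group, expressed as T divided by C. Tumor passaged by transplantation.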

The mark [1] stands for this setting: dose: 100.0 mg/kg/injection, schedule: Q04DX002 (ip), vehicle: Klucel (hydroxypropylcellulose) (HPC).
Setting [2] is: dose: 200.0 mg/kg/injection, schedule: Q04DX002 (ip), vehicle: Klucel (hydroxypropylcellulose) (HPC).
The mark [3] stands for this setting: dose: 100.0 mg/kg/injection, schedule: Q01DX009 (ip), vehicle: Klucel (hydroxypropylcellulose) (HPC).
[4] abbreviates: dose: 200.0 mg/kg/injection, schedule: Q01DX009 (ip), vehicle: Klucel (hydroxypropylcellulose) (HPC).
[5] abbreviates: dose: 100.0 mg/kg/injection, schedule: Q01DX001 (ip), vehicle: saline.
Setting [6] is: dose: 200.0 mg/kg/injection, schedule: Q01DX001 (ip), vehicle: saline.
The mark [7] stands for this setting: dose: 400.0 mg/kg/injection, schedule: Q01DX001 (ip), vehicle: saline.
The mark [8] stands for this setting: dose: 50.0 mg/kg/injection, schedule: Q01DX009 (ip), vehicle: saline.

Where “and” joins values, the source holds several entries; their conditions need not be identical. Equal entries are not always repeated. Inconclusive results and toxic doses are left out.

Consider `O=C1NC(=O)C2C3CCC(O3)C12` (centres undefined), for which the T/C is 92 % of control and 98 % of control (dose: 25.0 mg/kg/injection, schedule: Q04DX002 (ip), vehicle: Klucel (hydroxypropylcellulose) (HPC)); 96 % of control and 102 % of control (dose: 50.0 mg/kg/injection, schedule: Q04DX002 (ip), vehicle: Klucel (hydroxypropylcellulose) (HPC)); 98 % of control (dose: 55.0 mg/kg/injection, schedule: Q01DX Z (ip), vehicle: methylcellulose (MC)); 105 % of control (dose: 83.0 mg/kg/injection, schedule: Q01DX Z (ip), vehicle: methylcellulose (MC)); 103 % of control and 98 % of control and 86 % of control under setting [1]; 94 % of control (dose: 125.0 mg/kg/injection, schedule: Q01DX Z (ip), vehicle: methylcellulose (MC)). For the same compound, the T/C under setting [2] is 106 % of control.
With `Cc1ccc(CNc2cccc([N+](=O)[O-])c2)cc1`, the T/C under setting [3] was 98 % of control; the T/C (dose: 100.0 mg/kg/injection, schedule: Q04DX003 (ip), vehicle: Klucel (hydroxypropylcellulose) (HPC)) is 98 % of control; the T/C under setting [4] was 93 % of control; the T/C (dose: 200.0 mg/kg/injection, schedule: Q04DX003 (ip), vehicle: Klucel (hydroxypropylcellulose) (HPC)) is 96 % of control; the T/C (dose: 400.0 mg/kg/injection, schedule: Q01DX009 (ip), vehicle: Klucel (hydroxypropylcellulose) (HPC)) was 102 % of control; the T/C (dose: 400.0 mg/kg/injection, schedule: Q04DX003 (ip), vehicle: Klucel (hydroxypropylcellulose) (HPC)) was 101 % of control.
`NC(CC(=O)O)c1cccs1` (centres undefined): the T/C was 95 % of control (dose: 100.0 mg/kg/injection, schedule: Q04DX002 (ip), vehicle: saline); 95 % of control (dose: 200.0 mg/kg/injection, schedule: Q04DX002 (ip), vehicle: saline); 102 % of control (dose: 400.0 mg/kg/injection, schedule: Q04DX002 (ip), vehicle: saline).
In the case of `CN1CC2(Cc3ccccc3)c3ccccc3NC2(NC(=O)CCl)C1=O` (centres undefined), the T/C by setting is: (dose: 25.0 mg/kg/injection, schedule: Q04DX002 (ip), vehicle: saline with Tween-80) 87 % of control; (dose: 50.0 mg/kg/injection, schedule: Q04DX002 (ip), vehicle: saline with Tween-80) 90 % of control; (dose: 100.0 mg/kg/injection, schedule: Q04DX002 (ip), vehicle: saline with Tween-80) 91 % of control.
Take `CN(C)CCc1nn[nH]n1`: the T/C was 102 % of control (dose: 100.0 mg/kg/injection, schedule: Q04DX003 (ip), vehicle: saline); 97 % of control (dose: 200.0 mg/kg/injection, schedule: Q04DX003 (ip), vehicle: saline); 105 % of control (dose: 400.0 mg/kg/injection, schedule: Q04DX003 (ip), vehicle: saline).
For the compound `COc1ccccc1CN1CCCN(Cc2ccccc2OC)C1c1ccccc1O`, the T/C was 101 % of control (dose: 50.0 mg/kg/injection, schedule: Q01DX001 (ip), vehicle: saline); 103 % of control under setting [5]; 101 % of control under setting [6]; 97 % of control under setting [7].
Turning to `C/C=C/C(=O)Nc1ccc(Cl)c(Cl)c1`, the T/C is, setting by setting: under setting [1], 94 % of control; under setting [2], 90 % of control; (dose: 400.0 mg/kg/injection, schedule: Q04DX002 (ip), vehicle: Klucel (hydroxypropylcellulose) (HPC)) 90 % of control.
With `CCCCCCCSc1ncnc2c1ncn2CO`, the T/C by setting is: under setting [8], 104 % of control; (dose: 80.0 mg/kg/injection, schedule: Q01DX009 (ip), vehicle: saline) 107 % of control; under setting [5], 101 % of control; (dose: 117.0 mg/kg/injection, schedule: Q01DX009 (ip), vehicle: other) 114 % of control; (dose: 120.0 mg/kg/injection, schedule: Q01DX009 (ip), vehicle: saline) 104 % of control; under setting [6], 95 % of control. The T/C is 115 % of control under setting [7] and 164 % of control (dose: 400.0 mg/kg/injection, schedule: Q01DX009 (ip), vehicle: saline).
With `C/C(=C\C(=O)O)C(=O)O` (tested in a mixture with another compound), the T/C is, setting by setting: (dose: 264.0 mg/kg/injection, schedule: Q01DX001 (ip), vehicle: carboxymethylcellulose (CMC)) 113 % of control; (dose: 400.0 mg/kg/injection, schedule: Q01DX001 (ip), vehicle: carboxymethylcellulose (CMC)) 112 % of control; (dose: 600.0 mg/kg/injection, schedule: Q01DX001 (ip), vehicle: carboxymethylcellulose (CMC)) 112 % of control.
Consider `COC(=O)/C=C1\Nc2ccc([N+](=O)[O-])cc2NC1=O`, for which the T/C is 87 % of control (dose: 50.0 mg/kg/injection, schedule: Q01DX009 (ip), vehicle: Klucel (hydroxypropylcellulose) (HPC)); 94 % of control under setting [3]; 100 % of control under setting [4].
For the compound `CCCCCCC(=O)/C=C/c1ccc(Cl)cc1Cl`, the T/C is 95 % of control (dose: 100.0 mg/kg/injection, schedule: Q01DX009 (ip), vehicle: acetone); 86 % of control (dose: 100.0 mg/kg/injection, schedule: Q04DX003 (ip), vehicle: acetone); 90 % of control (dose: 200.0 mg/kg/injection, schedule: Q01DX009 (ip), vehicle: acetone); 91 % of control (dose: 200.0 mg/kg/injection, schedule: Q04DX003 (ip), vehicle: acetone); 95 % of control (dose: 400.0 mg/kg/injection, schedule: Q01DX009 (ip), vehicle: acetone); 93 % of control (dose: 400.0 mg/kg/injection, schedule: Q04DX003 (ip), vehicle: acetone).
As for `CC(C)N(C(=O)Nc1cccc2ccccc12)c1ccccc1`, the T/C (dose: 100.0 mg/kg/injection, schedule: Q01DX009 (ip), vehicle: gum acacia) is 97 % of control; the T/C (dose: 100.0 mg/kg/injection, schedule: Q04DX003 (ip), vehicle: gum acacia) is 110 % of control; the T/C (dose: 200.0 mg/kg/injection, schedule: Q01DX009 (ip), vehicle: gum acacia) is 96 % of control; the T/C (dose: 200.0 mg/kg/injection, schedule: Q04DX003 (ip), vehicle: gum acacia) was 102 % of control; the T/C (dose: 400.0 mg/kg/injection, schedule: Q01DX009 (ip), vehicle: gum acacia) is 99 % of control; the T/C (dose: 400.0 mg/kg/injection, schedule: Q04DX003 (ip), vehicle: gum acacia) was 104 % of control.
For the compound `C[N+]1(CCCNC2=CC(=O)C=CC2=O)CCCC1`, the T/C (dose: 0.5 mg/kg/injection, schedule: Q01DX001 (ip), vehicle: saline) is 108 % of control.
As for `COC(CBr)c1ccccc1` (centres undefined), the T/C is 98 % of control (dose: 12.5 mg/kg/injection, schedule: Q04DX003 (ip), vehicle: Klucel (hydroxypropylcellulose) (HPC)); 108 % of control (dose: 25.0 mg/kg/injection, schedule: Q01DX009 (ip), vehicle: saline); 101 % of control (dose: 25.0 mg/kg/injection, schedule: Q04DX003 (ip), vehicle: Klucel (hydroxypropylcellulose) (HPC)); 98 % of control under setting [8]; 96 % of control (dose: 50.0 mg/kg/injection, schedule: Q04DX003 (ip), vehicle: Klucel (hydroxypropylcellulose) (HPC)); 95 % of control (dose: 100.0 mg/kg/injection, schedule: Q01DX009 (ip), vehicle: saline).
`Oc1ccc[n+](CCCl)c1`: the T/C reads like this: (dose: 6.25 mg/kg/injection, schedule: Q01DX015 (ip), vehicle: saline) 96 % of control; (dose: 12.5 mg/kg/injection, schedule: Q01DX015 (ip), vehicle: saline) 100 % of control; (dose: 25.0 mg/kg/injection, schedule: Q01DX015 (ip), vehicle: saline) 104 % of control; (dose: 50.0 mg/kg/injection, schedule: Q01DX015 (ip), vehicle: saline) 100 % of control; (dose: 100.0 mg/kg/injection, schedule: Q01DX015 (ip), vehicle: saline) 100 % of control; (dose: 200.0 mg/kg/injection, schedule: Q01DX015 (ip), vehicle: saline) 96 % of control. Under “dose: 300.0 mg/kg/injection, schedule: Q01DX015 (ip), vehicle: saline”, the T/C is 100 % of control.
